# Legend:
# Assay type in all cases: functional, cell-based
# [1] = biological target: T1, Muscarinic acetylcholine receptor M2 (Homo sapiens, UniProt P08172); assay: Modulatory activity at M2 receptor (unknown origin) expressed in CHO-K1 cells assessed as cAMP production by TR-FRET analysis
# T1 sequence (P08172 whole entry): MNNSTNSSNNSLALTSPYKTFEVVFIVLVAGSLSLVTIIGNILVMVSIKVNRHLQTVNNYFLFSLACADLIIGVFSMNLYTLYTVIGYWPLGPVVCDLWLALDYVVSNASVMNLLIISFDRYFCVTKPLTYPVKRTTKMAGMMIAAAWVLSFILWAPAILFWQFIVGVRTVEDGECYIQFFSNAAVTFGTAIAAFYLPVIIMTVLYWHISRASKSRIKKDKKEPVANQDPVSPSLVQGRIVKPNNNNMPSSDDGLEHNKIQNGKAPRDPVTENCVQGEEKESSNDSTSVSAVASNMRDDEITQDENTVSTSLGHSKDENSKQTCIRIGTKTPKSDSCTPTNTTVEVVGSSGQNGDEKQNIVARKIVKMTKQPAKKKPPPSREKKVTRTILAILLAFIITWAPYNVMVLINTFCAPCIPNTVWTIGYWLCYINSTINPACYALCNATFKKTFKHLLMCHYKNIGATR
# [2] = biological target: T2, Muscarinic acetylcholine receptor M1 (Homo sapiens, UniProt P11229); assay: Modulatory activity at M1 receptor (unknown origin) expressed in CHO-K1 cells assessed as intracellular calcium flux incubated for 30 mins by Fluo-8 dye based FLIPR analysis
# T2 sequence (P11229 whole entry): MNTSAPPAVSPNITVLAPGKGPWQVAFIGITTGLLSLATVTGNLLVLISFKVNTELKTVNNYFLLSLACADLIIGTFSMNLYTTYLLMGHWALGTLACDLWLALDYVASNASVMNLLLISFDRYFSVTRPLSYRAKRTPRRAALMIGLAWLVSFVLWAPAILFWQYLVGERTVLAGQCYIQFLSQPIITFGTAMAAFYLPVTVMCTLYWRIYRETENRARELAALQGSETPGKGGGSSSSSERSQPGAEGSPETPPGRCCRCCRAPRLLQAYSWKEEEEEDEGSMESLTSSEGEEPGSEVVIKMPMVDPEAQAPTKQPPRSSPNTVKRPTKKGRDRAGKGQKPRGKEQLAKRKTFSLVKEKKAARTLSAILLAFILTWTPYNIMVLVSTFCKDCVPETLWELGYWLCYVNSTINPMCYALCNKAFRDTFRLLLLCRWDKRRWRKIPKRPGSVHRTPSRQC
# [3] = biological target: Muscarinic acetylcholine receptor M3 (Homo sapiens, UniProt P20309); assay: Modulatory activity at M3 receptor (unknown origin) expressed in CHO-K1 cells assessed as intracellular calcium flux incubated for 30 mins by Fluo-8 dye based FLIPR analysis
# Sequence of Muscarinic acetylcholine receptor M3 (P20309 whole entry): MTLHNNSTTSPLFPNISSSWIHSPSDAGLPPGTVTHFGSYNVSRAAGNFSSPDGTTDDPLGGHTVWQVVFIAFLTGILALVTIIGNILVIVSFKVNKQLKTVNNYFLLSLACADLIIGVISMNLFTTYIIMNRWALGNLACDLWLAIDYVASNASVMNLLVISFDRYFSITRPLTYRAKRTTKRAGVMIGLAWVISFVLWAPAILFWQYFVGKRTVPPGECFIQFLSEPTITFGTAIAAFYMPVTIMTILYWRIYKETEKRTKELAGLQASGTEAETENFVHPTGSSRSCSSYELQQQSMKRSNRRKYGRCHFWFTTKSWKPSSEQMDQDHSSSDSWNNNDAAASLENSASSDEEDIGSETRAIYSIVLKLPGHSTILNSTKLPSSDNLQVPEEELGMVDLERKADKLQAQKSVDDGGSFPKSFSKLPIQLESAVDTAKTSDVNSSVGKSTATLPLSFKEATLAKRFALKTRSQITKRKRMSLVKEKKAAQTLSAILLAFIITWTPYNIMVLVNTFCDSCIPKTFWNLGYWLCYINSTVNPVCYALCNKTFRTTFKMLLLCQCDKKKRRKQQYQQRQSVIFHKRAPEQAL
# [4] = biological target: T3, Muscarinic acetylcholine receptor M4 (Homo sapiens, UniProt P08173); assay: Modulatory activity at M4 receptor (unknown origin) expressed in CHO-K1 cells assessed as cAMP production by TR-FRET analysis
# T3 sequence (P08173 whole entry): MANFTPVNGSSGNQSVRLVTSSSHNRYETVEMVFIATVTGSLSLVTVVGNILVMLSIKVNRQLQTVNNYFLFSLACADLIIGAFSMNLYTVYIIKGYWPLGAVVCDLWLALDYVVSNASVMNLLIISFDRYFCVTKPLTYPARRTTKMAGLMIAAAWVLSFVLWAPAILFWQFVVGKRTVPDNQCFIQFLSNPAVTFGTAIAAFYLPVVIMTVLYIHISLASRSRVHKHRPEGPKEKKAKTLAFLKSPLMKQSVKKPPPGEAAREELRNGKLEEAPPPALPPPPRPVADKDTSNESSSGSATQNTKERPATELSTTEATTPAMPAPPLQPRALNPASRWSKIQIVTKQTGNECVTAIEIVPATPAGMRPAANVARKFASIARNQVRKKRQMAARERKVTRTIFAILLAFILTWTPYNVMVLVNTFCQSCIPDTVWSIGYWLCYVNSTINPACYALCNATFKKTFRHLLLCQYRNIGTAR
# [5] = biological target: T4, Muscarinic acetylcholine receptor M5 (Homo sapiens, UniProt P08912); assay: Modulatory activity at M5 receptor (unknown origin) expressed in CHO-K1 cells assessed as intracellular calcium flux incubated for 30 mins by Fluo-8 dye based FLIPR analysis
# T4 sequence (P08912 whole entry): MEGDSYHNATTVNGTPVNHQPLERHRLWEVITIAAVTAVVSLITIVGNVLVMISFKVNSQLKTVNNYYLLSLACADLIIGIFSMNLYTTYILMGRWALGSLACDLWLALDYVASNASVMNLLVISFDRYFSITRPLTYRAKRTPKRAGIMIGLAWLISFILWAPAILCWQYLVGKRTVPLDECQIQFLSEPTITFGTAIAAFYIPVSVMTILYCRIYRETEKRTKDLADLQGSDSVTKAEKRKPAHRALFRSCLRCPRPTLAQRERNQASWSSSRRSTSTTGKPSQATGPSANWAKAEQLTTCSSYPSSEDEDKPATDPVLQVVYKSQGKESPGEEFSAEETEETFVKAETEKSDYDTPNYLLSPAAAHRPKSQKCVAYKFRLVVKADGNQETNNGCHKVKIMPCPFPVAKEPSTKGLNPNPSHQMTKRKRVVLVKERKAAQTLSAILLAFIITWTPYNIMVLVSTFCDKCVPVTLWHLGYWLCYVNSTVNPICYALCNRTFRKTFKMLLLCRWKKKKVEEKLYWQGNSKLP
SMILES,EC50 [1] [µM],EC50 [2] [µM],EC50 [3] [µM],EC50 [4] [µM],EC50 [5] [µM]
CCOC(=O)N1CC2(CC[C@@H](N3CCN(c4cc(F)cnc4-c4cnn(C(F)F)c4)CC3)C2)C1,< 0.02,> 10,> 10,< 0.02,> 10
CCOC(=O)N1CC2(CC[C@@H](N3CCN(c4cc(F)cnc4-c4cncs4)CC3)C2)C1,> 10,< 0.02,> 10,< 0.02,> 10
CCOC(=O)N1CC2(CC[C@@H](N3CCN(c4cccnc4-c4ccc(F)nc4)CC3)C2)C1,> 10,> 10,> 10,< 0.02,0.02
CCOC(=O)N1CC2(CC[C@H](N3CCC(O)(c4cc(F)cnc4-c4cnccn4)CC3)C2)C1,> 10,,,0.02,
CCOC(=O)N1CC2(CC[C@@H](N3CCN(c4cc(F)cnc4-c4cncc(OC)c4)CC3)C2)C1,> 10,< 0.02,> 10,< 0.02,> 10
CCOC(=O)N1CC2(CC[C@@H](N3CCC(O)(c4cc(F)cnc4-c4cnccn4)CC3)C2)C1,> 10,,,< 0.02,
CCOC(=O)N1CC2(CC[C@@H](N3CCN(c4cc(F)cnc4-c4cnn(C(C)C)c4)CC3)C2)C1,0.1,> 10,> 10,< 0.02,> 10
CCOC(=O)N1CC2(CC[C@@H](N3CCN(c4cc(F)cnc4-c4ccc(=O)n(C)c4)CC3)C2)C1,> 10,> 10,> 10,< 0.02,> 10
CCOC(=O)N1CC2(CC[C@@H](N3CCN(c4cc(F)cnc4-c4ccc(=O)[nH]c4)CC3)C2)C1,> 10,< 0.02,> 10,< 0.02,0.02
CCOC(=O)N1CC2(CC[C@@H](N3CCN(c4cc(F)cnc4-c4cscn4)CC3)C2)C1,0.1,,,< 0.02,
CCOC(=O)N1CC2(CC[C@@H](N3CCN(c4cc(F)cnc4-c4cccc(CO)c4)CC3)C2)C1,,> 10,> 10,< 0.02,> 10
